# Measurements reported in PubChem BioAssay AID1902 (Broad Institute, 2009).
# Activity calls are given as the source filed them.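 Rule for the calls: active = EC50 no more than a set limit of log units above the highest dose; inactive = the rest.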
# Molecular target: S. pyogenes SKKanGAS, kanamycin survival, BacTiterGlo, 6 h
# Assay: SKKanGAS survival reduction under kanamycin, dose response, streptokinase promoter inhibitor project, SKKanGAS strain, luminescence, dose confirmation (AID 1902);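 note: lower survival reflects blocked streptokinase promoter driving kanamycin resistance gene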
row,Structure (SMILES),EC50
1,N#Cc1ccc(Cl)cc1NC(=O)CSc1nc2nc(-c3cccs3)cc(C(F)(F)F)c2c(=O)[nH]1,4.97 µM
2,CCC(=O)NC(c1ccc(C)cc1)c1cc([N+](=O)[O-])c2cccnc2c1O (stereo not given),1.31 µM
3,CC1CC(C)CN(Cc2nc(N)nc(Nc3ccc4ccccc4c3)n2)C1 (stereo not given),1.41 µM
4,Cc1cc2occ(CC(=O)NC3=NCCS3)c2cc1C(C)C,4.35 µM
5,O=C(Oc1ccc(Cl)c2cccnc12)c1ccco1,3.69 µM
6,Nc1nonc1-n1nnc(C(=O)N/N=C/c2cc(Br)ccc2O)c1CNc1ccccc1,0.394 µM
7,Cc1ccc(NS(=O)(=O)c2cc([N+](=O)[O-])ccc2NNC(=S)Nc2cccc(Cl)c2)c(C)c1,0.865 µM
8,CCOc1ccc(NC(=O)c2ccc3c(=O)n(-c4ccc(OC)cc4OC)c(=S)[nH]c3c2)cc1,7.86 µM
9,CCCc1nnc(NC(=O)c2c(O)c3cccc4c3n(c2=O)CCC4)s1,6.91 µM
10,O=C(N/N=C/c1ccccn1)c1ccc(Cl)c(Cl)c1,6.85 µM
11,CN(C)Cc1nc2ccccc2c(=O)n1Cc1nc(-c2cc3ccccc3o2)cs1,1.82 µM
12,CCC(=O)Nc1ccc(Nc2nc(C)c([N+](=O)[O-])c(Nc3ccc(NC(=O)CC)cc3)n2)cc1,1.56 µM
13,Nc1nc(Nc2ccccc2)nc(NC2CCCCC2)c1[N+](=O)[O-],5.57 µM
14,COc1ccc(S(=O)(=O)N/N=C(/C)c2ccncc2)cc1,> 15 µM (inactive)
15,Cc1ccc(Cl)cc1N1CCN(C(=O)c2cn(C)c(=O)c3c2c2ccccc2n3C)CC1,4.92 µM
16,CNC(=S)N/N=C/c1cn(Cc2ccc(C)cc2)c2ccccc12,5.33 µM
17,CCCCCCCC(=O)NNC(=O)c1c(O)c2ccccc2n(CC)c1=O,1.3 µM
18,COc1ccc(C#Cc2ccc3c(=O)c4ccccc4n(C)c3c2)cc1,13.9 µM
19,CCCCn1c(CCCNC(=O)c2ccco2)nc2ccccc21,> 15 µM (inactive)
20,CCCn1c(=O)c(C(=O)N/N=C/c2ccc(F)cc2)c(O)c2ccccc21,3.19 µM
21,COc1ccc(NC(=S)NNc2ccc([N+](=O)[O-])cc2S(=O)(=O)Nc2ccc(C)cc2C)cc1,8.34 µM
22,COc1ccccc1N=C1NC(=O)/C(=C/c2ccc(N(C)C)cc2)S1,6.08 µM
23,O=C(Nc1nnc(-c2ccncc2)o1)c1ccc(Br)s1,3.27 µM
24,O=C(COc1ccc(Cl)cc1Cl)NNC(=S)NC(=O)c1ccco1,0.102 µM
25,C/C(=N/NC(=O)c1cccs1)c1c(C)[nH]n(-c2nc3ccccc3s2)c1=O,3.24 µM
26,Cc1c(NCc2cc(Cl)cc(Cl)c2O)c(=O)n(-c2ccccc2)n1C,3.39 µM
27,Nc1nc(-c2ccccn2)nc(N)c1Cc1ccc(Cl)cc1Cl,5.03 µM

row,Structure (SMILES),EC50
1,Cc1ccccc1N=Nc1ccc(O)c2ncccc12,0.069 µM
2,Cc1ccc(-n2c(O)c(C=Nc3ccccc3-c3n[nH]c(=S)[nH]c3=O)c3ccccc3c2=O)cc1C,0.915 µM
3,N=C1S/C(=C\c2ccc(-c3cccc(Cl)c3)o2)C(=O)N1c1nccs1,< 0.06 µM
4,Oc1ccccc1N=Nc1nc(-c2ccccc2)c(-c2ccccc2)[nH]1,0.303 µM
5,O=c1c([N+](=O)[O-])cccn1Cc1ccc(F)cc1Cl,3.38 µM
6,Cc1ccc2nc(NNC(=O)c3ccc(S(=O)(=O)N4CCc5ccccc5C4)cc3)sc2c1,0.793 µM
7,CSc1nc(Oc2ccc3ccccc3c2)c2sccc2n1,7.58 µM
8,CCCCCc1ccc(OCCOCCn2c[n+](C)c3ccccc32)c(CCCCC)c1,5.79 µM
9,COc1cccc(-c2nnc(Nc3nc4c(F)cccc4s3)o2)c1,0.502 µM
10,CCOC(=O)c1cnc(-n2nc(C)cc2C)nc1NCc1ccccc1,4.14 µM
11,Nc1ccc(-c2nc3nc(N)nc(N)c3nc2-c2ccc(N)cc2)cc1,3.77 µM
12,COc1ccc(NC(=S)Nc2nc(CC(=O)Nc3ccccc3OC)cs2)cc1,8.89 µM
13,O=C(CNc1cccc2ccccc12)N/N=C/c1ccc[nH]1,> 15 µM (inactive)
14,CC12CC3(C)CC(C)(C1)CC(C(=O)NC1=NCCS1)(C2)C3,0.992 µM
15,O=C(O)c1ccc(NC(=S)NC(=O)c2cccc(COc3ccccc3)c2)cc1,4.45 µM
16,Cc1noc(C)c1S(=O)(=O)N(CCc1ccccc1)Cc1ccccc1,5.83 µM
17,CN(c1ccccc1)S(=O)(=O)c1ccc(C(=O)Nc2nnc(-c3ccc(F)cc3)o2)cc1,0.225 µM
18,C[C@H](CCC(=O)NCC(=O)O)[C@H]1CC[C@H]2C3[C@H](O)C[C@@H]4C[C@H](O)CC[C@]4(C)[C@H]3C[C@H](O)[C@]12C (stereo not given in full),> 15 µM (inactive)
19,Cc1nnc(NC(=O)c2ccc(S(=O)(=O)N3CC(C)CC(C)C3)cc2)o1 (stereo not given),5.82 µM
20,O=C(Nc1ccc(Cl)c(Cl)c1)O/N=C/c1ccncc1,2.38 µM
21,CCc1ccc(/C=C/c2c([N+](=O)[O-])c(=O)n(C)c(=O)n2C)cc1,11 µM
22,C/C(=N\NC(=S)NCc1ccccc1)c1cccc(Br)c1,5.44 µM
23,Oc1c(Cl)cc(Cl)cc1/C=N/NC(=S)NC1CC2C=CC1C2 (stereo not given),0.177 µM
24,CC1=C(C(=O)Nc2ccc([N+](=O)[O-])cc2)C(c2cccc(C(F)(F)F)c2)NC(=S)N1c1ccccc1 (stereo not given),4.02 µM
25,CC(/C=C1\SC(=S)N(NS(=O)(=O)c2ccccc2)C1=O)=C\c1ccccc1,5.38 µM
26,Cn1c(Sc2ccccc2Cl)c(C=O)c2ccccc21,5.92 µM
27,COc1ccc(C(=O)NNC(=S)NC(=O)/C=C/c2cccs2)cc1,0.598 µM

row,Structure (SMILES),EC50
1,Oc1[nH]c2ccc(Br)cc2c1N=NC(=S)N1CCOCC1,0.108 µM
2,Cc1cc(N/N=C\c2ccc(Br)cc2)nc(-n2nc(C)cc2C)n1,0.414 µM
3,O=C1c2cccc3c([N+](=O)[O-])ccc(c23)C(=O)N1O,1.16 µM
4,Cc1nn(-c2ccccc2)c(C)c1/C=N/n1c(-c2ccc(C(C)(C)C)cc2)n[nH]c1=S,2.62 µM
5,COc1ccc(C(=O)NC(=S)N(Cc2ccccc2)Cc2ccccc2)cc1,0.674 µM
6,Oc1c(Cl)cc(Cl)cc1C(C#Cc1ccccc1)N1CCOCC1 (stereo not given),12.2 µM
7,Cc1c(Cc2ccccc2)c(=O)oc2cc(OCc3ccc(C(=O)O)cc3)ccc12,5.9 µM
8,COc1cc(Br)cc(/C=N/NC(=O)Cc2ccc(C(F)(F)F)cc2[N+](=O)[O-])c1O,1.1 µM
9,CN1C(=O)/C(=C/c2ccc(C(F)(F)F)cc2)Sc2ccc(C(=O)N3CCN(c4ccccn4)CC3)cc21,1.57 µM
10,Cc1ccsc1C(=O)N(c1nc2ccccc2s1)c1c(C)cccc1C,4 µM
11,Cc1ccc(OCCn2c(NC(=O)c3ccco3)nc3ccccc32)cc1,3.58 µM
12,CCOc1ccc(C(=O)NC(=S)Nc2ccc(NC(=O)CC)cc2)cc1[N+](=O)[O-],4.35 µM
13,Cc1cc(Br)cc(/C=N/NC(=O)c2ccc3c(c2)OCO3)c1O,1.9 µM
14,CC(=O)N1CCc2cc(S(=O)(=O)N3CCc4ccccc43)ccc21,> 15 µM (inactive)
15,CC12CCC(C(=O)Nc3cccc(Cl)c3Cl)([C@H](Br)C1=O)C2(C)C (stereo not given in full),> 15 µM (inactive)
16,O=C(NCc1ccc2c(c1)OCO2)C(=O)NCC1OCCN1S(=O)(=O)c1ccc(Br)cc1 (stereo not given),> 15 µM (inactive)
17,CCOC(=O)C1=C(N)c2ccccc2CC1C1CCCC1 (stereo not given),3.26 µM
18,CCn1cc(CN2CCC(C(=O)Nc3ccc(Oc4cccnc4)cc3)CC2)cn1,> 15 µM (inactive)
19,O=[N+]([O-])c1ccc(NCc2ccc(Cl)cc2)c2ccncc12,9.29 µM
20,Cc1nn2c(NCc3ccccn3)cc(C(C)(C)C)nc2c1-c1ccccc1,1.54 µM
21,Cc1ccc(NC(=O)c2cccc(OCc3c(C)noc3C)c2)cc1S(=O)(=O)Nc1ccccc1Cl,7.39 µM
22,CN1CCN(C(c2ccc(Cl)cc2)c2cc(Cl)c3cccnc3c2O)CC1 (stereo not given),1.46 µM
23,CC(C)Cc1nnc(NC(=O)CCC(=O)N2CCN(c3ccccc3)CC2)s1,> 15 µM (inactive)
24,Cc1nn(C(=O)c2cccnc2)c(C)c1Sc1ccc(Br)cc1,4.36 µM
25,COc1cc(/C=N/Nc2nc3ccccc3s2)cc([N+](=O)[O-])c1O,8.93 µM
26,O=c1cc(/N=C/c2coc3c(ccc4ccccc43)c2=O)[nH]c(=S)[nH]1,1.53 µM
27,Cc1ccccc1OCCCc1c(C)n[nH]c1C,1.09 µM

row,Structure (SMILES),EC50
1,C/C(=N\NS(=O)(=O)c1ccc(C)cc1)c1ccc(C)o1,> 15 µM (inactive)
2,Cc1ccc(C(=O)NNC(=S)NC(=O)c2ccc(Cl)cc2Cl)cc1,0.09 µM
3,COc1cccc(CNCC(O)(c2ccc(Cl)cc2)c2ccc(Cl)cc2)c1,3.7 µM
4,Cc1sc2ncnc(N3CCC(C(=O)NCC(=O)Nc4ccc(F)c(F)c4)CC3)c2c1C,5.07 µM
5,Cc1[nH]c(-c2ccc(F)cc2)cc1C(=O)N1CCN(c2cccc(Cl)c2)CC1,4.92 µM
6,COc1ccc2cc(C(=O)/C=C/c3cc(OC)c(O)c(OC)c3)ccc2c1,6.68 µM
7,O=C(O)c1ccc(S(=O)(=O)/N=C2\C=C(Nc3ccccc3F)C(=O)c3ccccc32)cc1,3.1 µM
8,Cc1ccc(N2C(=O)C3CC(c4ccccc4)=C4C5C=CC(C6C(=O)N(c7ccc(C)cc7)C(=O)C56)C4C3C2=O)cc1 (stereo not given),1.39 µM
9,Cc1[nH]n(-c2ncc(-c3ccccc3)s2)c(=O)c1C(c1ccc(Br)cc1)C(C#N)C#N (stereo not given),5.83 µM
10,O=C(CSc1ccc2ccccc2n1)N/N=C/c1ccccc1O,2.12 µM
11,O=C1C2=C(NC(=S)NC2c2ccc(Cl)cc2)NC(c2ccc(Cl)cc2)N1c1ccc(Cl)cc1 (stereo not given),1.93 µM
12,CCOC(=O)c1cnc(-n2cc(C)cn2)nc1Nc1ccccc1OCC,4.18 µM
13,Cc1nn2c(COc3ccc(NC(=O)c4ccccc4)cc3)nnc2c2ccccc12,0.603 µM
14,O=c1c2cc(-c3ccccc3)sc2nc2n1CCC2,7.67 µM
15,CC1Oc2cc3oc4c(O)c5c(cc4c(=O)c3c(O)c2C1(C)C)C=CC(C)(C)O5 (stereo not given),2.48 µM
16,Cc1cc(SCC(=O)c2ccc(O)c(O)c2)n2nc(C)c(-c3ccccc3)c2n1,5.05 µM
17,CCCN(Cc1ccco1)S(=O)(=O)c1ccc(OC)c(OC)c1,> 15 µM (inactive)
18,OC1(C#Cc2c(-c3ccsc3)oc3ccc(N4CCOCC4)cc23)CCCCC1,3.59 µM
19,COCc1cc(=O)[nH]c(Nc2nc3ccccc3o2)n1,2.66 µM
20,CN(C)[C@@H]1C(=O)C(C(N)=O)=C(O)[C@@]2(O)C(=O)C3=C(O)c4c(O)cccc4[C@@](C)(O)C3[C@H](O)C12 (stereo not given in full),0.095 µM
21,CCOc1ccc(Nc2nc(N3CCCCC3)nc(N3CCCCC3)n2)cc1,0.65 µM
22,COC(=O)[C@@H]1[C@@H](C#N)C2(c3ccccc3-c3ccccc32)N(c2ccc(Cl)cc2)N1C#N,9.76 µM
23,O=C(O)c1ccc(N/N=C/c2ccc(-c3cccc(Cl)c3)o2)cc1,6.17 µM
24,CN(C)[C@@H]1C(=O)C(C(N)=O)=C(O)[C@@]2(O)C(=O)C3=C(O)c4c(O)cccc4[C@@](C)(O)C3C[C@@H]12 (stereo not given in full),0.096 µM
